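Grown in 96-well plates, cells were treated for 48 hours with each compound at five concentrations. Insufficient inhibition: endpoint recorded as highest concentration tested. GI50 is the concentration that inhibits growth by half. TGI: concentration producing complete growth inhibition.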
Assays:
Experiment in all cases: inhibition of tumour cell growth, NCI panel, 48 h
[1] = tested on: UO-31 renal
[2] = tested on: SNB-75 CNS
[3] = tested on: CAKI-1 renal
[4] = tested on: RXF 393 renal
[5] = tested on: SK-OV-3 ovarian
[6] = tested on: A549 NSCLC
[7] = tested on: NCI-H23 lung
[8] = tested on: SF-268 CNS
[9] = tested on: OVCAR-5 ovarian
[10] = tested on: MOLT-4 leukemia
[11] = tested on: HOP-92 NSCLC
[12] = tested on: SW-620 colon
[13] = tested on: UACC-62 melanoma
[14] = tested on: HCT-15 colon
[15] = tested on: HOP-62 NSCLC
[16] = tested on: K-562 leukemia
[17] = tested on: NCI-H460 lung
[18] = tested on: UACC-257 melanoma
[19] = tested on: MCF7 breast
[20] = tested on: MDA-MB-435
[21] = tested on: NCI-H522 lung
[22] = tested on: OVCAR-4 ovarian
[23] = tested on: HL-60(TB) leukemia
[24] = tested on: SK-MEL-28 melanoma
[25] = tested on: IGROV1 ovarian
[26] = tested on: M14 melanoma
[27] = tested on: DU-145 prostate
[28] = tested on: SN12C renal
[29] = tested on: ACHN renal
[30] = tested on: SK-MEL-5 melanoma
[31] = tested on: PC-3 prostate
[32] = tested on: HCT-116 colon
[33] = tested on: SF-539 CNS
[34] = tested on: NCI/ADR-RES ovarian
[35] = tested on: A498 renal
[36] = tested on: SNB-19 CNS
[37] = tested on: SK-MEL-2 melanoma
[38] = tested on: SR leukemia
[39] = tested on: HT29 colon
[40] = tested on: HS 578T breast
[41] = tested on: MALME-3M melanoma
[42] = tested on: 786-0 renal
[43] = tested on: LOX IMVI melanoma
[44] = tested on: EKVX NSCLC
[45] = tested on: BT-549 breast
[46] = tested on: MDA-MB-231 breast
[47] = tested on: COLO 205 colon
[48] = tested on: OVCAR-3 ovarian
[49] = tested on: T-47D breast
[50] = tested on: RPMI-8226 leukemia
[51] = tested on: KM12 colon
[52] = tested on: U251 CNS
[53] = tested on: SF-295 CNS
[54] = tested on: NCI-H226 lung
[55] = tested on: HCC-2998 colon
[56] = tested on: TK-10 renal
[57] = tested on: CCRF-CEM leukemia

Cc1n(Cc2ccc3ccccc3c2)c(Cl)c(Cl)[n+]1Cc1ccc2ccccc2c1
GI50 [1]: 1710 nM | TGI [1]: 8240 nM | GI50 [2]: 1160 nM | TGI [2]: 2660 nM | GI50 [3]: 1850 nM | TGI [3]: 4670 nM | GI50 [4]: 1660 nM | TGI [4]: 3160 nM | GI50 [5]: 2520 nM | TGI [5]: 9620 nM | GI50 [6]: 5070 nM | TGI [6]: 22000 nM | GI50 [7]: 1660 nM | TGI [7]: 3860 nM | GI50 [8]: 1670 nM | TGI [8]: 3290 nM | GI50 [9]: 1650 nM | TGI [9]: 3890 nM | GI50 [10]: 2310 nM | TGI [10]: 5580 nM | GI50 [11]: 1170 nM | TGI [11]: 2940 nM | GI50 [12]: 1480 nM | TGI [12]: 3060 nM | GI50 [13]: 1380 nM | TGI [13]: 2740 nM | GI50 [14]: 2290 nM | TGI [14]: 6520 nM | GI50 [15]: 1790 nM | TGI [15]: 3810 nM | GI50 [16]: 1900 nM | TGI [16]: 7300 nM | GI50 [17]: 1690 nM | TGI [17]: 3200 nM | GI50 [18]: 1810 nM | TGI [18]: 4210 nM | GI50 [19]: 1610 nM | TGI [19]: 3370 nM | GI50 [20]: 1680 nM | TGI [20]: 3190 nM | GI50 [21]: 1520 nM | TGI [21]: 3900 nM | GI50 [22]: 1390 nM | TGI [22]: 2760 nM | GI50 [23]: 1110 nM | TGI [23]: 3550 nM | GI50 [24]: 1680 nM | TGI [24]: 3180 nM | GI50 [25]: 1390 nM | TGI [25]: 2810 nM | GI50 [26]: 1790 nM | TGI [26]: 3990 nM | GI50 [27]: 2220 nM | TGI [27]: 5260 nM | GI50 [28]: 1620 nM | TGI [28]: 3030 nM | GI50 [29]: 2590 nM | TGI [29]: 8070 nM | GI50 [30]: 1690 nM | TGI [30]: 3080 nM | GI50 [31]: 1830 nM | TGI [31]: 4130 nM | GI50 [32]: 1620 nM | TGI [32]: 3280 nM | GI50 [33]: 1620 nM | TGI [33]: 3080 nM | GI50 [34]: 12000 nM | TGI [34]: 29600 nM | GI50 [35]: 1560 nM | TGI [35]: 4570 nM | GI50 [36]: 1570 nM | TGI [36]: 2960 nM | GI50 [37]: 2070 nM | TGI [37]: 4130 nM | GI50 [38]: 1870 nM | TGI [38]: 4980 nM | GI50 [39]: 1760 nM | TGI [39]: 4120 nM | GI50 [40]: 1540 nM | TGI [40]: 3790 nM | GI50 [41]: 1540 nM | TGI [41]: 3460 nM | GI50 [42]: 1710 nM | TGI [42]: 3140 nM | GI50 [43]: 1600 nM | TGI [43]: 2950 nM | GI50 [44]: 2400 nM | TGI [44]: 8010 nM | GI50 [45]: 1650 nM | TGI [45]: 3170 nM | GI50 [46]: 1590 nM | TGI [46]: 3090 nM | GI50 [47]: 1650 nM | TGI [47]: 3800 nM | GI50 [48]: 1440 nM | TGI [48]: 2870 nM | GI50 [49]: 2050 nM | TGI [49]: 6440 nM | GI50 [50]: 1050 nM | TGI [50]: 3120 nM | GI50 [51]: 1710 nM | TGI [51]: 3240 nM | GI50 [52]: 1790 nM | TGI [52]: 3600 nM | GI50 [53]: 2620 nM | TGI [53]: 8090 nM | GI50 [54]: 2480 nM | TGI [54]: 6970 nM | GI50 [55]: 1660 nM | TGI [55]: 3140 nM | GI50 [56]: 1790 nM | TGI [56]: 3530 nM | GI50 [57]: 1960 nM | TGI [57]: 6050 nM

— PubChem BioAssay (NCI)
